Results published in ChEMBL document CHEMBL3585279, “Novel 2,5-disubtituted-1,3,4-oxadiazoles with benzimidazole backbone: a new class of β-glucuronidase inhibitors and in silico studies” (Bioorg Med Chem, 2015).

Target: T1, Beta-glucuronidase (Homo sapiens, UniProt P08236)
T1 sequence (P08236 whole entry): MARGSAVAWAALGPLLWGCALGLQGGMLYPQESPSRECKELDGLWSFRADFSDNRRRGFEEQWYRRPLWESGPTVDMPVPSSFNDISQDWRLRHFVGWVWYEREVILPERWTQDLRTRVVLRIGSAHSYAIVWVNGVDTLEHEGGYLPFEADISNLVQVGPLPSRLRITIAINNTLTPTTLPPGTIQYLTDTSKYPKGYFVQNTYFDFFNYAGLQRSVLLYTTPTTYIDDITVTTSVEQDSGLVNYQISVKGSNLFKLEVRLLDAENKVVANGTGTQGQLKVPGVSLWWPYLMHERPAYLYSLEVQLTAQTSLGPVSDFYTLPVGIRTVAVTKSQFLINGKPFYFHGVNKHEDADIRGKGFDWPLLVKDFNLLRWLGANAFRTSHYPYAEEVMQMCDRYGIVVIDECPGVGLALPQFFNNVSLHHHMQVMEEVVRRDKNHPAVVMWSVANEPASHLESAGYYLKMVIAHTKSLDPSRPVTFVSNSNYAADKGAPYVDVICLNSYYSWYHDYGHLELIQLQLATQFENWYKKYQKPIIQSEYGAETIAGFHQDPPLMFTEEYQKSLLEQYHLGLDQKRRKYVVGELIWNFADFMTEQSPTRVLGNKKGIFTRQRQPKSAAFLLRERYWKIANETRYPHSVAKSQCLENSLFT
Description: Inhibition of beta-D-glucuronidase (unknown origin) assessed as reduction in p-nitrophenol formation using p-nitrophenyl-beta-D-glucuronide substarte incubated at 37 degC for 30 mins by spectrophotometric method

IC50 | SMILES
Not Active | COc1ccc(-c2nnc(-c3ccc(-c4nc5cc(C)c(C)cc5[nH]4)cc3)o2)cc1
Not Active | Cc1cc2nc(-c3ccc(-c4nnc(-c5ccccc5C)o4)cc3)[nH]c2cc1C
Not Active | Cc1cccc(-c2nnc(-c3ccc(-c4nc5cc(C)c(C)cc5[nH]4)cc3)o2)c1
